# Test results as given in patent US20130295578A1, “METHODS FOR SCREENING FOR DRUG RESISTANCE IN CANCER TREATMENT” (TRUSTEES OF DARTMOUTH COLLEGE, priority 2011, published 2013).
# Key:
# COLO-357 cells [1] = details: for EGF/TGF-β1-induced growth stimulation: 1 nM EGF + 100 pM TGF-β1, inhibitor pre-incubated or added concomitantly
# Method: An equal volume of cell suspension and ice-chilled 6% Matrigel™ (BD biosciences, San Jose, Calif.) in complete medium (RPMI 1640 supplemented with 5% FBS and 1× penicillin/streptomycin) were mixed and dispensed at: 5-15×10^3 cells in 1000 μl per well of 12-well plates or 3-10×10^3 cells in 200 μl per well of 48-well plates on top of a solidified 1% noble agar layer (Difco, Sparks, Md.). Ice-chilled 3% Matrigel™ in complete medium was used to replenish medium every 4 days and/or to administer compounds.
# After 4 hours of staining with 2.5 mg/ml of 3-(4,5-Dimethylthiazol-2-yl)-2,5-diphenyltetrazolium bromide (MTT; Sigma) in PBS, plates were scanned and images were stored as high resolution (1200 dpi) grayscale TIFF files. Signal intensity and density was quantified using Image-Pro Plus (Media Cybernetics, Bethesda, Md.).
# PK; p16/p19Δ/Δ cells = assay: ex vivo primary cell 3D culture of PDAC mouse model tumor cells; type: cell-based; details: p16/p19Δ/Δ tumor-derived cells
# Method: (§1) To assess tissue response to different chemotherapeutic treatments, tumor tissues were digested with collagenase to obtain single cell suspensions for accurate cell counting and equal cell seeding in replica experimental wells.
# (§2) Murine pancreatic tissue from euthanized animals was mechanically minced and digested with 2 mg/ml of Collagenase Type 4 (Worthington, Lakewood, N.J.) for 1 hour at 37° C. For ex vivo primary cell culture, 10,000 cells per well of 48-well plate were immediately plated in 3% Matrigel™ as described above, except for this modification: RPMI 1640 medium was supplemented with 20% FBS, 1× penicillin/streptomycin and 25 ng/mL amphotericin B (MP Biomedicals, LLC, Solon, Ohio). For secondary cell cultures from tumor lesions of mouse models, cancer (epithelial) cells were selected by carrying out several rounds of diluted plating in RPMI 1640 medium, with a gradual decrease concentration of FBS from 20% to 5%: PK-1 and RInk-1, as previously reported (Seeley et al. 2009. Cancer Res. 69:422-430), or after subcutaneous passage in nude mice (PK-2 and RInk-2). Experiments were conducted with epithelial cells within less than 20 passages.
# PK; p53Δ/Δ cells = assay: as above; type: cell-based; details: p53Δ/Δ tumor-derived cells
# Method: as §1, §2
# PDAC patients = details: cited from earlier work
# PK-2 cells [2] = assay: modified extracellular matrix-based 3D culture, MTT readout; type: cell-based, murine; details: for chemoresistance to treatment: PK-2 compared with COLO-357, at the tested concentrations; for EGF/TGF-β1-induced growth stimulation: 1 nM EGF + 100 pM TGF-β1, inhibitor pre-incubated or added concomitantly
# Method: as §2
# PK-1 and PK-2 cells = assay: modified extracellular matrix-based 3D culture; type: cell-based, murine; details: kinase inhibitor present
# Method: as §2
# [3] = test system: BT474 breast cancer cells; details: 3D culture, trastuzumab resistance; cited from earlier work
# PK-2 cells [4] = assay: culture on tissue culture-treated plastic plates, morphology and immunostaining; type: cell-based, murine
# Excerpt: (§3) To further investigate the effects of extracellular matrix components on integration of growth factor signals in both human and murine pancreatic cancer cells, cellular responses were compared on conventional tissue culture-treated plastic plates and in 3% Matrigel™. […] Thus, cells loosened their tightly packed cobble-stone like arrangement, became more motile and acquired an elongated fibroblast-like shape. […] This effect was not observed in T3M4 cells, whereas the distribution of the cytoskeleton protein tubulin (control marker) was uniform across all epithelial structures. Increased vimentin expression was not observed in these cellular structures.
# (§4) Cells cultured in 3% Matrigel™ were collected 4 days after treatment on a 40 μm sieve mesh using chilled PBS to loosen Matrigel™ matrix, fixed in 10% formalin for 1 hour and coated with melted 1% noble agar. Agar plugs were fixed for up to 4 hours in formalin and paraffin-embedded in fully-automated Shandon Pathcentre instrument as described previously (Sempere et al. 2010. Clin Cancer Res. 16:4246-4255). For freshly fixed cell assays, cells were seeded at 2-5×10^3 per well on 48-well plates, treated after 24 hours and collected 48 hours after treatments by rinsing with chilled PBS and fixed in 10% formalin for 30 minutes. Four μm sections of cellular structures in paraffin-embedded or freshly fixed cells were immunostained using antibody conditions and sequential tyramide signal amplification reactions as previously described (Sempere et al. 2010. Clin Cancer Res. 16:4246-4255).
# [5] = test system: PK-1, PK-2 and RInk-2 cells; assay: modified extracellular matrix-based 3D culture, growth factor stimulation; type: cell-based, murine
# Method: (§5) To determine how pancreatic cancer cells would integrate potential interactions between EGF and TGF-β1 signals, cells were treated four days after seeding in 3% Matrigel™ with TGF-β1 at a final concentration of 100 pM and/or EGF at 1 nM. […] The growth of ASPC-1, BxPC3 and T3M4 was not affected by TGFB-β1 treatment.
# as §2
# COLO-357 cells [6] = assay: culture on tissue culture-treated plastic plates, morphology and immunostaining; type: cell-based, human
# Excerpt: as §3, §4
# COLO-357 cells [7] = assay: anchorage-independent growth in soft agar culture; type: cell-based, human; details: COLO-357, soft agar
# [8] = test system: ASPC-1, BxPC3 and T3M4 cells; assay: modified extracellular matrix-based 3D culture, growth factor stimulation; type: cell-based, human
# Method: as §5
compound,measurement,setting,value
Nc1ccn([C@@H]2O[C@H](CO)[C@@H](O)C2(F)F)c(=O)n1 [gemcitabine],cytotoxic effect,"COLO-357 cells [1]; human, 4 days, 10 nM",killed most COLO-357 cells
same,number and size of cellular structures in 3D culture,PK; p16/p19Δ/Δ cells,reduced the number and size of cellular structures
same,number and size of cellular structures in 3D culture,PK; p53Δ/Δ cells,reduced the number and size of cellular structures
same,prolongation of life,PDAC patients; PDAC,about 8 weeks
same,chemoresistance to treatment,PK-2 cells [2],more chemoresistant
N#CC(=C(/N)Sc1ccccc1N)/C(C#N)=C(\N)Sc1ccccc1N [U0126],EGF/TGF-β1-induced growth stimulation,"COLO-357 cells [1]; COLO-357, 3D culture",mild inhibitory effect
same,stimulatory growth effects of EGF/TGF-β1,PK-1 and PK-2 cells,moderate effect
same,protective effects of EGF/TGF-β1 against gemcitabine and cisplatin,"PK-2 cells [2]; PK-2, 3D culture, concomitant inhibitor treatment",markedly effective only in PK-2 cells
CC(C)(C)n1nc(-c2ccc(Cl)cc2)c2c(N)ncnc21 [PP2],activation of PI3K/AKT pathway and chemoresistant effects of TGF-β,[3],prevented activation of PI3K/AKT pathway and disrupted chemoresistant effects of TGF-β
C[S+]([O-])c1ccc(-c2nc(-c3ccncc3)c(-c3ccc(F)cc3)[nH]2)cc1 (centres unmarked) [SB203580],EGF/TGF-β1-induced growth stimulation,"COLO-357 cells [1]; COLO-357, 3D culture",mild inhibitory effect
same,stimulatory growth effects of EGF/TGF-β1,PK-1 and PK-2 cells,mild effect
C#Cc1cccc(Nc2ncnc3cc(OCCOC)c(OCCOC)cc23)c1 [erlotinib],EGF/TGF-β1-induced growth stimulation,"COLO-357 cells [1]; COLO-357, 3D culture",significantly decreased
same,additional increase in survival,PDAC patients; addition to gemcitabine as first-line PDAC treatment,12 days
same,EGF/TGF-β1-induced growth stimulation,"PK-2 cells [2]; PK-2, 3D culture",significantly decreased
"N.N.[Cl][Pt][Cl] [cisplatin, cis-diamminedichloroplatinum]",number and size of cellular structures in 3D culture,PK; p16/p19Δ/Δ cells,reduced the number and size of cellular structures
same,number and size of cellular structures in 3D culture,PK; p53Δ/Δ cells,reduced the number and size of cellular structures
same,chemoresistance to treatment,PK-2 cells [2],more chemoresistant
"TGF-β1: transforming growth factor-β isoform 1, used at 100 pM",E-cadherin and vimentin immunostaining,"PK-2 cells [4]; PK-2, on plastic, after TGF-β1 treatment",loss of membranous E-cadherin (epithelial marker) and upregulation of intermediate filament vimentin (mesenchymal marker)
same,TGF-β1 concentration giving limited morphological changes,"PK-2 cells [4]; PK-2, plastic culture",20 pM
same,TGF-β1 concentration giving overt morphological changes,"PK-2 cells [4]; PK-2, plastic culture",200 pM
same,E-cadherin immunostaining,"COLO-357 cells [1]; COLO-357, 3D culture",reduced membranous localization of E-cadherin
same,lowest concentration at which morphological changes were observed,"COLO-357 cells [1]; COLO-357, 3D culture",1 pM
same,morphology,"COLO-357 cells [1]; COLO-357, 3D culture, 100 pM TGF-β1",profound morphological changes
same,growth stimulatory effects of EGF,"COLO-357 cells [1]; COLO-357, 3D culture, TGF-β1 added to EGF",greatly enhanced
same,growth,"COLO-357 cells [1]; COLO-357, 3D culture, growth factor treatment",mild growth stimulatory effects
same,size of cellular structures under cisplatin or gemcitabine challenge,"COLO-357 cells [1]; COLO-357, growth factor-treated, after 4 and 8 days of incubation",> 5 cells
same,E-cadherin immunostaining,"PK-2 cells [2]; PK-2, 3D culture",reduced membranous localization of E-cadherin
same,lowest concentration at which morphological changes were observed,"PK-2 cells [2]; PK-2, 3D culture",1 pM
same,morphology,[5]; 100 pM TGF-β1,profound morphological changes
same,growth,[5]; growth factor treatment four days after seeding,dramatically enhanced the growth
same,E-cadherin and vimentin immunostaining,"COLO-357 cells [6]; COLO-357, on plastic, after TGF-β1 treatment",loss of membranous E-cadherin (epithelial marker) and upregulation of intermediate filament vimentin (mesenchymal marker)
same,TGF-β1 concentration giving limited morphological changes,"COLO-357 cells [6]; COLO-357, plastic culture",20 pM
same,TGF-β1 concentration giving overt morphological changes,"COLO-357 cells [6]; COLO-357, plastic culture",200 pM
same,size and number of colonies,COLO-357 cells [7],decreased the size and number of colonies
same,growth promoting effects of EGF,COLO-357 cells [7]; TGF-β1 added to EGF,antagonized
same,growth,[8]; 100 pM TGF-β1,not affected
same,proliferative actions of EGF,[8]; TGF-β1 added to EGF,did not affect
NC(=O)c1ccc(-c2nc(-c3ccc4c(c3)OCO4)c(-c3ccccn3)[nH]2)cc1 [SB431542],EGF/TGF-β1-induced growth stimulation,"COLO-357 cells [1]; COLO-357, 3D culture",significantly decreased
same,"EGF/TGF-β1-induced growth stimulation, late inhibitor addition","COLO-357 cells [1]; COLO-357, inhibitor added 4 days following incubation with EGF/TGF-β1",halted further growth stimulation
same,EGF/TGF-β1-induced growth stimulation,"PK-2 cells [2]; PK-2, 3D culture",significantly decreased
same,"EGF/TGF-β1-induced growth stimulation, late inhibitor addition","PK-2 cells [2]; PK-2, inhibitor added 4 days following incubation with EGF/TGF-β1",halted further growth stimulation
